Structures are written as SMILES. Entries after “also recorded” stand apart in the source; their conditions may differ. Marks after values point to notes of the source that are not given here.

Consider one compound from patent publication US20020045664A1, “Estrogen mimetics lacking reproductive tract effects” (The University of Georgia Research Foundation, Inc, priority 1999, published 2002).

Test [1] relates to OVX rat. Kind of test: OVX rat: body weight and uterine wet weight. It counts as in vivo. How it is done: (§1) In the first experiment 50 female Sprague-Dawley rats that were approximately 90 days of age and weighed an average of 240 g at the beginning of the study were used. Animal care and handling was carried out solely at the AAALAC accredited animal facility at the University of Georgia College of Pharmacy, in accordance with a protocol approved by the University of Georgia Institutional Animal Care and Use Committee. On the day of surgery (day 0), all rats were anesthetized with an intraperitoneal (i.p.) injection of ketamine hydrochloride and xylazine at doses of 50 mg/kg body weight and 10 mg/kg body weight, respectively. Ten rats were sham-operated during which the ovaries were exteriorized but replaced intact. Bilateral ovariectomies were performed in the remaining 40 rats from a dorsal approach. Each rat was housed individually at 25° C. with a light/dark cycle of 13 hours/11 hours. Food (Teklad 22/5 Rodent Diet, Madison, Wis.), with calcium and phosphate contents of 0.95% and 0.67%, respectively, was available ad libitum to all animals.
(§2) Sham-operated rats (N=10) and one of the four groups of OVX rats (N=10) were injected subcutaneously (s.c.) with vehicle (5% benzyl alcohol in corn oil) 5 days per week for 5 weeks. […] The above treatments were initiated on the first day after surgery. The dose level of 17β-estradiol was believed to be optimal based on earlier studies (T. Wronski et al., Endocrinology 123:681-686 (1988)). […] Each rat was injected s.c. with demeclocycline and calcein (Sigma Chemical Co., St. Louis, Mo.) at a dose of 15 mg/kg body weight on the 10th and 3rd days before sacrifice, respectively, to label sites of bone formation.
(§3) A second experiment, using 40 animals, was performed in exactly the same manner described above, in which effects of the s.c. administration of 3.7 mg/kg/day of 4HTA to one group of OVX animals was compared to the effects of vehicle or 17β-estradiol in three other groups (vehicle treated sham OVX, vehicle treated OVX, and 17β-estradiol-treated OVX rats).
(§4) All rats were sacrificed by exsanguination from the abdominal aorta under ketamine/xylazine anesthesia. Failure to detect ovarian tissue and observation of marked atrophy of the uterine horns confirmed the success of ovariectomy. The body weight of each animal was recorded, as was uterine wet weight. Blood samples were allowed to coagulate at room temperature (2 hours) in a Vacutainer tube. Serum was obtained by centrifugation for 10 minutes at 3000 rpm, and samples were stored at −80° C. until analyzed. The right tibia was removed at necropsy, dissected free of muscle, and cut in half cross-sectionally with a hand-held saw (Dremel Moto Tool, Racine, Wis.). The bone samples were then placed in 10% phosphate-buffered formalin for 24 hours for tissue fixation.

In test [2] the test system is OVX rat. Kind of test: Serum rat osteocalcin radioimmunoassay in OVX rats. It counts as in vivo. On the procedure:
as §1, §2, §3, §4
Materials, as well as standard protocols for their use, were obtained from Biomedical Technologies, Inc., Stoughton Mass. Serum samples from each member of the different treatment groups were diluted 1:20. Duplicate aliquots (100 μL) of each diluted sample were incubated in an orbital shaker at 80 rpm ([…]) for 16 hours with the first antibody and nonimmune serum in RIA buffer (final volume 0.5 mL). An aliquot of [^125I]-osteocalcin (10 nCi, 0.034 ng) in 100 μL of RIA buffer was then added to each tube and incubation was continued for 24 hours. Then the second (precipitating) antibody was added in 1 mL of modified buffer, and incubation was continued for 4 hours. Tubes were then centrifuged at 1500×g for 15 minutes. Pellets were washed with cold distilled water and recentrifuged as before. Supernatant was decanted and radioactivity in pellets was determined using a gamma counter. Serum osteocalcin levels were determined by comparing the sample values (cpm) to the linear region of a standard curve of cpm/pellet vs. the amount of osteocalcin present, obtained from incubations to which known amounts (0-0.35 ng) of osteocalcin had been added. […]

A further test has as its target estrogen receptor (Homo sapiens, UniProt P03372). Conditions: cited from earlier work.
Test [3] relates to MCF 7 human breast cancer cells. Conditions: estradiol-stimulated MCF-7 proliferation; cited from earlier work.
The next test concerns MCF-7 cells. Conditions: MCF-7 cell proliferation assay; cited from earlier work.

Sequence of estrogen receptor (P03372 whole entry): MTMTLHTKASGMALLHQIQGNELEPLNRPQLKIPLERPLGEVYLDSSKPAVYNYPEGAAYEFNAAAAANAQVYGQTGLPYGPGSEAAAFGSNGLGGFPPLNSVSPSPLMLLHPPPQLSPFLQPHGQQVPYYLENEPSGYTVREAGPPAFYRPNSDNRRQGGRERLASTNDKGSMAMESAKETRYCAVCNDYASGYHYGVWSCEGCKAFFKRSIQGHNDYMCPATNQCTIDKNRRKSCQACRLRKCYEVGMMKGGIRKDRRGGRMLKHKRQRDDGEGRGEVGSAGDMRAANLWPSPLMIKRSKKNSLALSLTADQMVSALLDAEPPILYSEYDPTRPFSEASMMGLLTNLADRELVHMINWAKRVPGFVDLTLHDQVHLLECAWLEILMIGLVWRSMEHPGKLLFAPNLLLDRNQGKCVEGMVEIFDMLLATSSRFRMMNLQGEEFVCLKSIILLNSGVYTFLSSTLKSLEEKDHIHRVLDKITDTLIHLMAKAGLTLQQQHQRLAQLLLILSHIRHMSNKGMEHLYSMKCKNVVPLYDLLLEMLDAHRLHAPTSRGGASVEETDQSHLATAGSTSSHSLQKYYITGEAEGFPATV

Turning to `CCC(=C(c1ccc(O)cc1)c1ccc(OCC(=O)O)cc1)c1ccccc1` [4HTA, (E,Z)-2-{4-[1-(p-hydroxyphenyl)-2-phenyl]-1-butenyl}phenoxyacetic acid], the “greater uterine weight compared to vehicle-treated OVX animals” value in the test on OVX rat [1] (17β-estradiol: average of both experiments, 4HTA: vs respective OVX vehicle controls) is given as 25%. Further, the “Body Weight, mean (SD)” value with OVX rat [1] (experiment 2, OVX rats, s.c. 5 days/week for 5 weeks, 17β-estradiol 10 μg/kg/day, 4HTA 3.7 mg/kg/day) is reported as 305 (12)^b,c g. Further, the “increase in overall body weight after ovariectomy” value in the test with OVX rat [1] (five-week course of the two studies, subcutaneous five days per week) was “not observed”. The “increase in serum OC” value with OVX rat [2] (OVX animals, with respect to OVX vehicle controls) was “did not differ”. The “Relative Serum OC Level, mean (SD)” value with OVX rat [2] (experiment 2, relative to OVX-17β-estradiol treated group (=100)) is reported as 188 (42)^c. In addition, the “relative estrogen receptor binding affinity (RBA)” value at estrogen receptor is given as 20% of estradiol binding affinity. Moreover, in test [3], the “estrogen antagonist activity in growth inhibition assay in the presence of estrogen” value is “weak antagonist potency; also recorded: weakly inhibits”. In the test on MCF-7 cells, the “maximal growth-stimulatory effect, as a percent of that of estradiol” value is 79%.
